Measured values as given in ChEMBL document CHEMBL1201862, “PubChem BioAssay data set” (2004).
One block for each molecule: values may come before it. Activity calls are given as the source filed them.

Experiments:
[1] = general mammalian cell viability loss – activator set, cherry-pick, cytotoxicity control for miR-122 modulator project, dose response (AID 720690); assay type: functional, cell-based;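 note: HEK293T human cells scored for general mammalian cytotoxicity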
[2] = target: T1, Serine/threonine-protein phosphatase (Candida dubliniensis (strain CD36 / CBS 7987 / NCPF 3949 / NRRLY-17841) (Yeast), UniProt B9W6M3); assay: blockers of CaCl2-induced CDRE-lacZ signaling – S. cerevisiae, luminescence, secondary, dose response (AID 2388); assay type: functional, cell-based;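 note: yeast reporter cells carrying a calcineurin-responsive lacZ construct stimulated with calcium chloride; luminescent beta-galactosidase reporter signal in whole cells rather than isolated phosphatase activity; potency for inhibition where a drop in reporter signal means calcineurin blockade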
T1 sequence (B9W6M3 whole entry): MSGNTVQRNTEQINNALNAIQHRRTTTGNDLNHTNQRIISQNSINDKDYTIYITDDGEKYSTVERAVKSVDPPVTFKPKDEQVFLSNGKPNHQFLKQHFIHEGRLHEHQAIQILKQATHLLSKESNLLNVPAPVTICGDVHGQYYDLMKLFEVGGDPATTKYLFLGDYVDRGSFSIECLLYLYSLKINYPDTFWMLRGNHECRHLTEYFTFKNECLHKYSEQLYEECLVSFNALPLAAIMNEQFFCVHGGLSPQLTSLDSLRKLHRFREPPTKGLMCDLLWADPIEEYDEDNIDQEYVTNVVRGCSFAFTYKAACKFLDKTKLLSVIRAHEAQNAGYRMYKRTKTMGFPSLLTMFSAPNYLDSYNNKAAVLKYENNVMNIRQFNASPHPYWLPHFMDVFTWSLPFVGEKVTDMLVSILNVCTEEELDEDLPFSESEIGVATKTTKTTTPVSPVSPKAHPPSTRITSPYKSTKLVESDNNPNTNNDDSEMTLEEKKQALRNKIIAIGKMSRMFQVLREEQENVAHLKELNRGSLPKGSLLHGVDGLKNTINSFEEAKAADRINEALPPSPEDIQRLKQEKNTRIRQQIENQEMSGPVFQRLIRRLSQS

[3] = HGIII-sPLA2 enzyme inhibition potency – biochemical, QFRET, IC50, dose response (AID 743457);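 note: green fluorescence rise as the enzyme cleaves BODIPY PC-A2 in liposomes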
[4] = target: ATP-dependent molecular chaperone HSP82 (Candida albicans (strain WO-1) (Yeast), UniProt C4YTQ8); assay: steroid-induced GRE reporter decrease in yeast – S. cerevisiae, luminescence, Hsp90 inhibitor project, dose response (AID 2400); assay type: functional, cell-based;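 note: beta-galactosidase luminescence from glucocorticoid response element reporter as proxy for Hsp90 function; inhibitor potency where signal loss means Hsp90 inhibition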
[5] = NIH-3T3 fibroblast cytotoxicity, dose response, cytotoxicity control, cell-based, fluorescence, Alamar Blue, secondary assay (AID 2327); assay type: functional;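 note: NIH-3T3 mouse fibroblasts cultured with fluconazole at 8 µg/mL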
[6] = NIH3T3 cell viability loss – ATP luminescence, mouse fibroblasts, counter-screen, dose response (AID 2010); assay type: functional, cell-based;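 note: cells exposed to compound for about 90 hours before reading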
[7] = fluconazole-exposed Candida albicans growth modulators – fluorescence, retest, confirmation (AID 2467); assay type: functional, cell-based
[8] = Trypanosoma cruzi growth suppression in host cells – NIH3T3 host cells, beta-gal luminescence, confirmation (AID 2044); assay type: functional, cell-based;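 note: intracellular parasites grown in NIH/3T3 mouse fibroblasts as host cells; luminescent beta-galactosidase reporter signal from transgenic T. cruzi replicating inside host cells; inhibitors lower the luminescence signal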
[9] = system: Streptococcus sp. 'group A'; assay: Streptococcus pyogenes SK(-)GAS viability under kanamycin – luminescence, BacTiterGlo, confirmation, counter-screen for streptokinase expression inhibitor project, dose response (AID 1900); assay type: functional, organism-based
[10] = target: Heat shock protein HSP 90-alpha (Homo sapiens, UniProt P07900); assay type: functional, organism-based
Streptococcus = assay: GAS UMAA2166 growth inhibition – luminescence, BacTiterGlo, counter-screen for streptokinase expression inhibitor project, dose response (AID 1915); assay type: functional, organism-based;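 note: potency for reduction of bacterial viability or growth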
[11] = T. cruzi growth inhibition in host cells, dose response, cell-based, plate reader, dry powder, set 2 (AID 652275); assay type: functional
Beta-galactosidase = Beta-galactosidase (Escherichia coli, UniProt Q8VNN2); assay: Dose response counterscreen for EBI2 assay utilizing the enzyme, b-galactosidase.; assay type: functional
Vero = assay: viability loss in Vero cells – cell-based, plate reader, cherry-pick samples, cytotoxicity control, dose response (AID 687020); assay type: functional; details: Chlorocebus sabaeus
[12] = target: Peroxisome proliferator-activated receptor gamma/Nuclear receptor coactivator 1 (Homo sapiens, UniProt P37231); assay: TR-FRET dose response biochemical High Throughput Screening assay for agonists of the steroid receptor coactivator 1 (SRC-1) recruitment by the peroxisome proliferator-activated receptor gamma (PPAR gamma): non-selective agonists. [Related pubchem assays (depositor defined):AID1300, AID1808, AID504735, AID631]; assay type: protein assay
[13] = target: Peroxisome proliferator-activated receptor gamma/Nuclear receptor coactivator 2 (Homo sapiens, UniProt P37231); assay: (§1) TR-FRET dose response biochemical High Throughput Screening assay for agonists of the steroid receptor coactivator 2 (SRC-2) recruitment by the peroxisome proliferator-activated receptor gamma (PPAR gamma): non-selective agonists. [Related pubchem assays: 1297, 1032 ]; assay type: functional
[14] = target: Peroxisome proliferator-activated receptor gamma/Nuclear receptor coactivator 3 (Homo sapiens, UniProt P37231); assay: as §1, with “3 (SRC-3)” for “2 (SRC-2)”, “1301 (Confirmation screen.), 1048 (Primary screen.)]” for “1297, 1032 ]”; assay type: functional
cells [15] = assay type: functional, cell-based
cells [16] = assay type: functional, cell-based; remark: listed apart in the source
[17] = target: T2, Oxysterols receptor LXR-beta (Homo sapiens, UniProt P55055); assay type: functional, cell-based;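 note: agonist activity at LXR measured by a cell-based luminescence readout across a dose range, run as a counterscreen for daf-12 agonists; HEK293 cells with Gal4-LXR fusion and GAL4-driven luciferase reporter; potency for activation of Gal4-LXR reporter so compounds are agonists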
T2 sequence (P55055 whole entry): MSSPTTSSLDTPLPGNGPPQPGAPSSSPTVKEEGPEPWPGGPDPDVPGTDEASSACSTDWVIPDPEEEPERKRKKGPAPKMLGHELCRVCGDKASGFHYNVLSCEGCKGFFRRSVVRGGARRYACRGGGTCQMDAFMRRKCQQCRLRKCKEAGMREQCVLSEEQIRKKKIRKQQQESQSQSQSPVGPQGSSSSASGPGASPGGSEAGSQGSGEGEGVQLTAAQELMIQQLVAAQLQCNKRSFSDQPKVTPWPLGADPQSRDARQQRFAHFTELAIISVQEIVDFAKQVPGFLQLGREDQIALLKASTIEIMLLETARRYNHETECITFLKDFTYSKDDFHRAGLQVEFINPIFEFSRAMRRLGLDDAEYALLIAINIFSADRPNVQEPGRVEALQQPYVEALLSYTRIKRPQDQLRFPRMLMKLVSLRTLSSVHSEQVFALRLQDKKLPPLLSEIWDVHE

Beta-galactosidase, sequence (Q8VNN2 whole entry): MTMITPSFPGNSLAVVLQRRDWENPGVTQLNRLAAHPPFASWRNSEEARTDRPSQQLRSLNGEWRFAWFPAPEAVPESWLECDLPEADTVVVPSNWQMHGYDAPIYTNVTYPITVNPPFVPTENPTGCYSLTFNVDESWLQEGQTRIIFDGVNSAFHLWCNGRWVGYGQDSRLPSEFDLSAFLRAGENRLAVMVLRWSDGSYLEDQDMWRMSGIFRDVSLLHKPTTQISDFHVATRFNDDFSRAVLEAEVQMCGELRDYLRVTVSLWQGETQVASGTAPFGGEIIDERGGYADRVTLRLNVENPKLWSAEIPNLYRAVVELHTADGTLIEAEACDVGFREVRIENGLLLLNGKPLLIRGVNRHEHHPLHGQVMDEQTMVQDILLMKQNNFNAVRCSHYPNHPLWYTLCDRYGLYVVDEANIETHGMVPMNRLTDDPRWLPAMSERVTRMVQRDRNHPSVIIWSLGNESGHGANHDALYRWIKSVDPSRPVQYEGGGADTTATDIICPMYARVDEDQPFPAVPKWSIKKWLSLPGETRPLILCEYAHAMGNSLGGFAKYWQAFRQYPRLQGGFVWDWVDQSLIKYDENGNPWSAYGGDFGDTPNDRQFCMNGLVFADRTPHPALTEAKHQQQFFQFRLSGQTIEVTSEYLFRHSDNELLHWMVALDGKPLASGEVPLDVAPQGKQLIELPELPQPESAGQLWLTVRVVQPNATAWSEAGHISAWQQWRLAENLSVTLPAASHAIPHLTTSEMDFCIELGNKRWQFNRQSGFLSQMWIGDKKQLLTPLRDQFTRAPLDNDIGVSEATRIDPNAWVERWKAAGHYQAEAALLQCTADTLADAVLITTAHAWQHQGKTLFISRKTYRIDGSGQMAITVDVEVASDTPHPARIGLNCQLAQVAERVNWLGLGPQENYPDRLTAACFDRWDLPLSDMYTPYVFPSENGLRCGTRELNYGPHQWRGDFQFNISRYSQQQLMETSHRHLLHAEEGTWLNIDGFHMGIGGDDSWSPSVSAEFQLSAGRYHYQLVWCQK
ATP-dependent molecular chaperone HSP82, sequence (C4YTQ8 whole entry): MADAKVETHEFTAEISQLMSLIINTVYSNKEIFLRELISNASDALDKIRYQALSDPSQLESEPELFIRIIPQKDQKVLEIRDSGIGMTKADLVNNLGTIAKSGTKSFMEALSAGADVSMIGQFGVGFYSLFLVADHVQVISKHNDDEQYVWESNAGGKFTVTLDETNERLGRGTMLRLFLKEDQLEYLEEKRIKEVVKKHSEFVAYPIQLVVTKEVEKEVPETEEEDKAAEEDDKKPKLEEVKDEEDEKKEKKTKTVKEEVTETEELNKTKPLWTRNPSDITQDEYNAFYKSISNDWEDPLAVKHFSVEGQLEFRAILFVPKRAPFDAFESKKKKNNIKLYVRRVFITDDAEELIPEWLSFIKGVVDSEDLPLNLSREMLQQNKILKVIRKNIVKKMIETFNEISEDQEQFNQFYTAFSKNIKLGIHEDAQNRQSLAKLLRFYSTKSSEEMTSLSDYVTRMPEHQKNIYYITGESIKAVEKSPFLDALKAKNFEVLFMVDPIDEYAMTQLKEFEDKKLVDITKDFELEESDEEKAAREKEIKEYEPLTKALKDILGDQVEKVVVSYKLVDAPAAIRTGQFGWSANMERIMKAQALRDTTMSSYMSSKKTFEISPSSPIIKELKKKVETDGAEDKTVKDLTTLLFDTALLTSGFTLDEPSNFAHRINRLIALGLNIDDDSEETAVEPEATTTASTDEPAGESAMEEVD
Peroxisome proliferator-activated receptor gamma/Nuclear receptor coactivator 1, sequence (P37231 whole entry): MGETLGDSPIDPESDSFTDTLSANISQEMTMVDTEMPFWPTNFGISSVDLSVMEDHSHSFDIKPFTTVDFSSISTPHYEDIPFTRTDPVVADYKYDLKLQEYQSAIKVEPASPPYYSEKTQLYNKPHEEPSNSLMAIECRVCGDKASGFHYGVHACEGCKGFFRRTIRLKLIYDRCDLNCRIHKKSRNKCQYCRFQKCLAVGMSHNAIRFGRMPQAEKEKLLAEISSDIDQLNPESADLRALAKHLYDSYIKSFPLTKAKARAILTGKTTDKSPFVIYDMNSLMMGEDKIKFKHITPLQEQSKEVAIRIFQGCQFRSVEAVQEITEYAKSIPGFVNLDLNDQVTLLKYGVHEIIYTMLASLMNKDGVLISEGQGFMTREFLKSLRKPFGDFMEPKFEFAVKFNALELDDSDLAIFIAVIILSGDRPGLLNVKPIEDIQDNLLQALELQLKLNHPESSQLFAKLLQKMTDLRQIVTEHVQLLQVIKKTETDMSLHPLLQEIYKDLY
Peroxisome proliferator-activated receptor gamma/Nuclear receptor coactivator 1, sequence (Q15788 whole entry, further chain): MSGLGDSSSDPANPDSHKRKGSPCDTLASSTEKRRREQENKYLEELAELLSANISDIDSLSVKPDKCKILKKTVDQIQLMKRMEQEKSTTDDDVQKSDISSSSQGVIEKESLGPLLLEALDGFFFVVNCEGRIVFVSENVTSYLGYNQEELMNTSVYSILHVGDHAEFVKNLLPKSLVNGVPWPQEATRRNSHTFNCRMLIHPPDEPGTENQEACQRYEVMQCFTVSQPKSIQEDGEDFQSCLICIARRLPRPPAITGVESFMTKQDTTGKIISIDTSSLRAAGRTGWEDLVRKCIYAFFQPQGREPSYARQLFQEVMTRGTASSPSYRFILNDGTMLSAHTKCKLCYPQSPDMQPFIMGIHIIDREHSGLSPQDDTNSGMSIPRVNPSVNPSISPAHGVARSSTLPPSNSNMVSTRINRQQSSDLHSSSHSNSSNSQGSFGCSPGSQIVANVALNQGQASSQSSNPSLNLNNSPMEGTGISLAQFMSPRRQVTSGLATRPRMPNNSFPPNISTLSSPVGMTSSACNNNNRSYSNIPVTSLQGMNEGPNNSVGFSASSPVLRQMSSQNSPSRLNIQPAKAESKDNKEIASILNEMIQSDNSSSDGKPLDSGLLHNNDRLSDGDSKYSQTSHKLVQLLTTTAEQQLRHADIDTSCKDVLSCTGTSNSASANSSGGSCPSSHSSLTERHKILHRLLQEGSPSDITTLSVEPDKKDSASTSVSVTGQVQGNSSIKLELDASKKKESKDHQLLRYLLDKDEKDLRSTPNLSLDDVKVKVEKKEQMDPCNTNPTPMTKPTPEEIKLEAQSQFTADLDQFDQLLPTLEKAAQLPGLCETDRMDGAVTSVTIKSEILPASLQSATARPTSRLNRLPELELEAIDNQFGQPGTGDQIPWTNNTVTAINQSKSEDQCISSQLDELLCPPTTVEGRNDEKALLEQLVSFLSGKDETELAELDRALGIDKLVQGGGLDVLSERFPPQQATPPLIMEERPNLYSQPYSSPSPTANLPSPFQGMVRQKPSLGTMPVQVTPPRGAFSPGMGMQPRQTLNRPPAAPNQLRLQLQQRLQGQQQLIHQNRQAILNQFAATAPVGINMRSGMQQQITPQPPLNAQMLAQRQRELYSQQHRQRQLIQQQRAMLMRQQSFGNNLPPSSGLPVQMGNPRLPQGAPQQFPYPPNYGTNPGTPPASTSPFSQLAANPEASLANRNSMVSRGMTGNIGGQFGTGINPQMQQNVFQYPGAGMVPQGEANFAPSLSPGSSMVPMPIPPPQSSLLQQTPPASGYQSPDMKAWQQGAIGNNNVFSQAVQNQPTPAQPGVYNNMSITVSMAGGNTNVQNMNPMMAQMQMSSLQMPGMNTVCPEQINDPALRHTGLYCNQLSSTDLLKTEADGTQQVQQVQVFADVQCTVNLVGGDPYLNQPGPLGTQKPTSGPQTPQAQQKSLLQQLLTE

SMILES: CCCNC(=O)C[C@@H]1CC[C@H]2[C@H](COc3ccc(NC(=O)c4ccc(C(F)(F)F)cc4)cc3C(=O)N2C)O1
- AC50 [1]: 31.5 µM (active)

SMILES: COc1ccc(Cl)cc1C(Nc1cccnc1)c1ccc2cccnc2c1O (stereo unspecified)
- EC50 [2]: > 180 µM (inactive)
- IC50 [3]: > 122 µM (inactive)
- EC50 [4]: 16.3 µM (active)
- EC50 [5]: 33.6 µM (active)
- EC50 [6]: 6.56 µM (active)
- EC50 [7]: 0.728 µM (active)
- EC50 [8]: 1.86 µM (active)
- EC50 [9]: 3.74 µM (active)
- AC50 [10]: 2.2 µM (active)
- EC50 (Streptococcus): 5.9 µM (active)

SMILES: CC(C)N1C[C@@H](CN(C)Cc2ccc(Cl)cc2)Oc2c(NC(=O)c3ccncc3)cccc2C1=O
- AC50 [11]: 0.0045 µM (active)

- IC50 (Beta-galactosidase): > 80 µM (inactive)
SMILES: CO/N=C/c1ccc(Oc2ccc(C)cc2)nc1

SMILES: O=C(CN1CCC(O)(c2cccc(C(F)(F)F)c2)CC1)NCCc1ccccc1
- AC50 (Vero): 11.6 µM (active)

- IC50 (Beta-galactosidase): > 80 µM (inactive)
- EC50 [12]: 14.5 µM (inactive)
- EC50 [13]: 17.3 µM (not active)
- EC50 [14]: 49.9 µM (not active)
SMILES: CNC(=S)N1N=C(c2ccc(Br)cc2)CC1c1ccc(OC)cc1 (stereo unspecified)

SMILES: O=C(Nc1ccccc1)Nc1nncs1
- IC50 (cells [15]): > 29.9 µM (inactive)
- EC50 (cells [16]): > 29.9 µM (inactive)

- EC50 [17]: > 67.6 µM (inactive)
SMILES: c1ccc(N=Nc2ccc(C3=NCCO3)cc2)cc1
